The source of these data is patent US4740499A, “Method of enhancing the bioactivity of atrial peptides” (Monsanto Company, priority 1986, dated 1988).

Usually share remaining stands for the share of the starting amount still present when the sample was taken. The low end stands for more turnover, the high end for less turnover.

Data set [1] in a line: Plasma AP-III levels (radioimmunoassay) in rats, first test: constant AP-III infusion, varied thiorphan dose. Conditions: male, Sprague-Dawley, rat, in vivo, iv. Format: in vivo, rat. The procedure: (§1) Plasma levels of atriopeptin III (AP-III) were tested in rats in which the AP-III was infused intravenously both with and without contemporaneous administration of thiorphan.
(§2) Male Sprague-Dawley rats, 240-310 g, were used for all tests. The rats were housed in the test facilities for at least 6 days before they were used.
(§3) Cannulas were made of PE-10 (polyethylene) tubing inserted and glued into a piece of PE-50 tubing. Rats were anesthetized with pentobarbital (50 mg/kg i.p.) and had cannulas inserted into the left femoral vein and artery. Both were inserted four cm into the vessels and tied securely. They were then tunnelled under the skin and brought out between the rat's shoulder blades and then cut so that only 1-2 cm was externalized. Cannulas were glued in place using Superglue and filled with saline containing 100 units heparin/ml. Rats were allowed to wake up and then housed individually with food and water ad libitum.
(§4) Two days after surgery, the rats were weighed and put into restraining cages that allowed limited movement. […] Blood was collected from the femoral artery and replaced with saline containing 10 units heparin/ml. In most tests, 0.3 ml blood was taken, except that when basal AP-III levels were measured 0.4 ml blood was withdrawn. Blood was immediately centrifuged in a microcentrifuge for one minute and plasma was frozen in plastic tubes placed on dry ice. Samples were kept in a -80° C. freezer until they were analyzed.
(§5) Thiorphan was dissolved in a minimal amount of 0.1 N NaOH to produce the sodium salt. The solution was immediately neutralized using 0.5 N HCl and diluted to a final concentration with 0.9% saline.
After taking the second sample, thiorphan was given as a bolus injection into the femoral artery and the line was flushed with 0.2 ml saline. The doses of thiorphan were 1,3,10 and 30 mg/kg; one set of rats received only a saline bolus as a control. Blood was taken 10,20,30 and 60 minutes after the injection of thiorphan. AP-III was infused during the entire experiment for a total of 90 minutes.
(§6) Plasma AP-III levels were analyzed by radioimmunoassay using a second antibody to separate free and bound AP-III. The label was ^125 I-AP-III that was purified by HPLC after iodination. Conditions were set so that 35-40% of the total counts were precipitated. The incubation medium contained sodium phosphate, pH 7.4, 0.25% bovine serum albumin (BSA), 0.5% sodium azide and 3% PEG-8000 (polyethylene glycol). The primary antibody was from a guinea pig immunized against AP-III. The incubations were done overnight at 6° C. The next day, 2 ml of 0.125% BSA was added to each tube and then they were centrifuged for 45 min at 3000 rpm. They were decanted and the radioactivity was counted in a Micromedic gamma counter. The standard curve contained 10 to 600 pg AP-III/tube. Only the linear portion of the curve was used for quantification. Plasma samples were diluted so that the AP-III concentrations were in the range of the standard curve.

Data set [2] can be described thus: Plasma AP-III levels (radioimmunoassay) in rats, second test: varied AP-III infusion rate, constant thiorphan dose. Format: in vivo, rat. Conditions: male, Sprague-Dawley, rat, in vivo, iv. The procedure: as §1, §2, §3, §4, §5
In the second test, the level of thiorphan was kept constant at 3 mg/kg and the rate of AP-III infusion was varied. AP-III was infused into the femoral vein for a total of 60 minutes at a rate of 150,450 and 900 ng/kg/min; another group of rats received only an infusion of dextrose/saline to determine if thiorphan affected the basal levels of AP-III. Blood was taken at 15 and 30 minutes after the start of the AP-III infusion to check for a steady state AP-III plasma concentration. After the 30 min sample, thiorphan (3 mg/kg) was injected arterially and additional blood samples were taken 15 and 30 min later (45 and 60 minutes after the start of the AP-III infusion).
as §6

Data set [3] relates to rabbit kidney brush border membranes (RBBM). Kind of data set: physchem. Format: biochemical. Conditions: for Effect of inhibitor on atrial peptide bioactivity during incubation with renal brush border membranes: nanomolar (low) concentrations of inhibitor. The procedure: (§7) The kelatorphan was prepared according to the method described for compound 13 by Fournie-Saluski et al., J. Med. Chem. 28, 1158-1169 (1985). The following procedure was performed at 4° C. Rabbit kidneys were obtained fresh and were perfused with buffer A (containing 5 mM Tris, pH 7.5, 0.25 M sucrose, 3 mM MgCl2 and 1 mM EDTA) to remove the blood. (EDTA=ethylenediaminetetraacetic acid.) The kidneys were minced, homogenized in 5 volumes of ice-cold buffer A with a Brinkmann Polytron homogenizer and filtered through two layers of cheesecloth. The filtrate was centrifuged at 5,000×g for 20 min, the pellet was discarded and the supernatant was centrifuged at 15,000×g for 20 min. The supernatant was retained and then centrifuged at 100,000×g for 90 min. The pellet was resuspended in 50 mM Tris, pH 7.5, and the suspension was centrifuged at 100,000×g for 90 min. The washed pellet was resuspended in 50 mM Tris, pH 7.5, to give a final protein concentration of 4 mg/ml using the protein assay of Bradford, Anal. Biochem. 72, 248-254 (1976). The membrane preparation was assayed for aminopeptidase and alkaline phosphatase activities which are the marker enzymes for the kidney brush border. See Inui et al., Biochim. Biophys. Acta 647, 150-154 (1981). The final membrane preparation was enriched 8-fold in alkaline phosphatase activity, and 11-fold in aminopeptidase activity, compared to the homogenate. Renal brush border membranes (10-20 μg) were preincubated for 15 min at 25° C. in a solution containing the inhibitor and 50 mM Tris, pH 7.5. […] Incubations were for 60 min at 25° C. and were terminated by removing the membranes by filtration using Gelman GA-6 filters. The filtrates were immediately frozen on dry ice and were stable for 1 week when stored at -80° C. Samples containing the peptide degradation products were resolved by C18 reversed phase high pressure liquid chromatography (HPLC). The frozen samples were thawed immediately before injection onto a Vydac C18 column (4.6 mm I.D.×25 cm; 5 micron/300 Å) equilibrated with water containing 0.05% trifluoracetic acid (TFA). Peptide fragments and starting material were separated on a linear gradient of 0-35% acetonitrile also containing 0.05% TFA. Both the gradient and the flow rate (1 ml/min) were maintained by a Waters HPLC system consisting of two Model 510 pumps connected to an Automated Gradient Controller. Column effluent was monitored at 220 nm by a Waters Model 481 spectrophotometer, and the amount of atrial peptide material and peptide fragments were measured via a Hewlett-Packard Model […] integrator. […] Therefore, in those cases where the N-terminal serine was removed, the total amount of biologically active material remaining at the end of the incubation was taken as the % starting material remaining plus % des […] -AP-I or des […] -AP-III (as appropriate), as calculated from the peak areas of the individual peptides on HPLC.

Another data set in a line: physchem. Format: biochemical, rabbit. The settings on record: pH 7.5, Peak area as % Initial AP: AP. The procedure: as §7
The mark [4] stands for this setting: rabbit, kidney or brush border membranes.
Where [5] appears, read: (c) 40 μM AP-III, 20 μg RBBM, 100 nM inhibitor, 60 min, 25° C.

Where a SMILES comes first, the peptide text is derived from it. Bridges are numbered along the chain shown (N, C = ends).

In the case of `CC[C@H](C)[C@@H]1NC(=O)[C@H](CCCN=C(N)N)NC(=O)[C@H](CC(=O)O)NC(=O)[C@H]([C@@H](C)CC)NC(=O)[C@H](CCCN=C(N)N)NC(=O)CNC(=O)CNC(=O)[C@H](Cc2ccccc2)NC(=O)[C@@H](NC(=O)[C@H](CO)NC(=O)[C@@H](N)CO)CSSC[C@@H](C(=O)N[C@@H](CC(N)=O)C(=O)N[C@@H](CO)C(=O)N[C@@H](Cc2ccccc2)C(=O)N[C@@H](CCCN=C(N)N)C(=O)N[C@@H](Cc2ccc(O)cc2)C(=O)O)NC(=O)CNC(=O)[C@H](CC(C)C)NC(=O)CNC(=O)[C@H](CO)NC(=O)[C@H](CCC(N)=O)NC(=O)[C@H](C)NC(=O)CNC1=O` [AP-III] (H-SSCFGGRIDRIGAQSGLGCNSFRY-OH; disulfide 3-19), in data set [1] (833 ng/kg/min), the “Plasma AP-III concentration, stable level during infusion” value was 9 to 11 ng/mL; the “Plasma AP-III levels, constant level in control rats” value is 11 to 12 ng/mL; the level at 20 min amounted to 9.6 ± 1.6 ng/mL; the level at 0.5 h came out at 10.8 ± 1.1 ng/mL. In addition, in data set [1] (833 ng/kg/min), the level at 40 min turned out to be 11.2 ± 1.3 ng/mL, the level at 50 min came to 11.3 ± 1.1 ng/mL, the level at 1 h came to 11.7 ± 0.7 ng/mL and the level at 1.5 h amounted to 10.6 ± 1.4 ng/mL. In addition, in data set [1] (1 mg/kg), the level at 20 min came out at 9.2 ± 2.4 ng/mL and the level at 0.5 h came to 9.7 ± 1 ng/mL. Further, in data set [1] (3 mg/kg), the level at 20 min was found to be 10.1 ± 1.6 ng/mL and the level at 0.5 h stood at 11 ± 1.1 ng/mL. In data set [1] (10 mg/kg), this compound yielded a level at 20 min of 9.7 ± 2.4 ng/mL and a level at 0.5 h of 10.6 ± 2.9 ng/mL. Besides, in data set [1] (30 mg/kg), the level at 20 min worked out at 9.2 ± 1.1 ng/mL and the level at 0.5 h is 8.8 ± 1 ng/mL. In data set [2] (150 ng/kg/min), this compound came in with a level at 0.25 h of 0.9 ± 0.2 ng/mL and a level at 0.5 h of 1 ± 0.6 ng/mL. Moreover, in data set [2] (450 ng/kg/min), the level at 0.25 h is 4.2 ± 1 ng/mL and the level at 0.5 h came to 4.5 ± 1.2 ng/mL. In data set [2] (900 ng/kg/min), this compound gave a level at 0.25 h of 11.2 ± 3.5 ng/mL and a level at 0.5 h of 13.6 ± 1.8 ng/mL. Also, the “Peak area as % Initial AP: AP” value in data set [3] (rabbit, kidney or brush border membranes, 1 h, 40 μM, pH 7.5) is reported as 2.1%. In “physchem” (buffer or solvent), the share remaining at 1 h, 40 μM turned out to be 100%. Further, in the data set “physchem” (setting [4]), the amount remaining at 1 h, 40 μM was 3.3%.

For `C[C@H](NC(=O)[C@H](CC(=O)NO)Cc1ccccc1)C(=O)O` [(S,S) kelatorphan], in data set [3] (setting [5]), the “Peak area as % Initial AP: AP” value was 17.2%, the “Peak area as % Initial AP: AP + des Ser^1 -AP” value is 49.3% and the “Peak area as % Initial AP: des Ser^1 -AP” value stood at 32.1%. For the same compound, in data set [3], the “Effect of inhibitor on atrial peptide bioactivity during incubation with renal brush border membranes” value (“Effect of inhibitor” for short) is reported as “inhibit the loss of atrial peptide bioactivity”.

Take `CC[C@H](C)[C@@H]1NC(=O)[C@H](CCCN=C(N)N)NC(=O)[C@H](CC(=O)O)NC(=O)[C@H]([C@@H](C)CC)NC(=O)[C@H](CCCN=C(N)N)NC(=O)CNC(=O)CNC(=O)[C@H](Cc2ccccc2)NC(=O)[C@@H](NC(=O)[C@H](CO)NC(=O)[C@@H](N)CO)CSSC[C@@H](C(=O)N[C@@H](CC(N)=O)C(=O)N[C@@H](CO)C(=O)O)NC(=O)CNC(=O)[C@H](CC(C)C)NC(=O)CNC(=O)[C@H](CO)NC(=O)[C@H](CCC(N)=O)NC(=O)[C@H](C)NC(=O)CNC1=O` [AP-I] (H-SSCFGGRIDRIGAQSGLGCNS-OH; disulfide 3-19): the “Degradation of atrial peptide by proteolytic activity of renal brush border membranes” value in data set [3] is on record as “degraded”. The compound also had a fraction remaining at 1 h, 40 μM in the data set “physchem” (buffer or solvent) of 100%.

Take `C[C@H](NC(=O)[C@@H](CC(=O)NO)Cc1ccccc1)C(=O)O` [kelatorphan, [(R)-3-(N-hydroxy)carboxamido-2-benzylpropanoyl]-L-alanine]: in data set [3], the “Effect of inhibitor” value is reported as “substantially prolonged or enhanced”.

In the case of `C[C@H](NC(=O)[C@@H](CC(=O)NO)Cc1ccccc1)C(=O)O` [(R,S) kelatorphan], in data set [3] (setting [5]), the “Peak area as % Initial AP: AP” value was 16.5%, the “Peak area as % Initial AP: AP + des Ser^1 -AP” value was determined as 31.4% and the “Peak area as % Initial AP: des Ser^1 -AP” value came out at 14.9%. Also, the “Effect of inhibitor” value in data set [3] is “inhibit the loss of atrial peptide bioactivity”.

Take `CC[C@H](C)[C@@H]1NC(=O)[C@H](CCCNC(=N)N)NC(=O)[C@H](CC(=O)O)NC(=O)[C@H](CCSC)NC(=O)[C@H](CCCNC(=N)N)NC(=O)CNC(=O)CNC(=O)[C@H](Cc2ccccc2)NC(=O)[C@@H](NC(=O)[C@H](CO)NC(=O)[C@H](CO)NC(=O)[C@H](CCCNC(=N)N)NC(=O)[C@H](CCCNC(=N)N)NC(=O)[C@H](CC(C)C)NC(=O)[C@@H](N)CO)CSSC[C@@H](C(=O)N[C@@H](CC(N)=O)C(=O)N[C@@H](CO)C(=O)N[C@@H](Cc2ccccc2)C(=O)N[C@@H](CCCNC(=N)N)C(=O)N[C@@H](Cc2ccc(O)cc2)C(=O)O)NC(=O)CNC(=O)[C@H](CC(C)C)NC(=O)CNC(=O)[C@H](CO)NC(=O)[C@H](CCC(N)=O)NC(=O)[C@H](C)NC(=O)CNC1=O` [SLRR(Met^8)AP-III]: the “Degradation of atrial peptide by proteolytic activity of renal brush border membranes” value in data set [3] was “degraded”. For the same compound, the results for the share remaining at 1 h, 40 μM in “physchem” (buffer or solvent) and in “physchem” (setting [4]) were 100% and 0%, respectively.
